Experimental data: US8431593B2, “Heteroaryl amide derivatives” (H. Lundbeck A/S, priority 2006, dated 2013)
Where two headings read alike, the source gives them in different places. One block for each compound: values may come before it.

Target: T1, P2X7 receptor (Homo sapiens, UniProt Q99572)
T1 construct: host or cells: SH-SY5Y
T1 sequence (Q99572 1-595): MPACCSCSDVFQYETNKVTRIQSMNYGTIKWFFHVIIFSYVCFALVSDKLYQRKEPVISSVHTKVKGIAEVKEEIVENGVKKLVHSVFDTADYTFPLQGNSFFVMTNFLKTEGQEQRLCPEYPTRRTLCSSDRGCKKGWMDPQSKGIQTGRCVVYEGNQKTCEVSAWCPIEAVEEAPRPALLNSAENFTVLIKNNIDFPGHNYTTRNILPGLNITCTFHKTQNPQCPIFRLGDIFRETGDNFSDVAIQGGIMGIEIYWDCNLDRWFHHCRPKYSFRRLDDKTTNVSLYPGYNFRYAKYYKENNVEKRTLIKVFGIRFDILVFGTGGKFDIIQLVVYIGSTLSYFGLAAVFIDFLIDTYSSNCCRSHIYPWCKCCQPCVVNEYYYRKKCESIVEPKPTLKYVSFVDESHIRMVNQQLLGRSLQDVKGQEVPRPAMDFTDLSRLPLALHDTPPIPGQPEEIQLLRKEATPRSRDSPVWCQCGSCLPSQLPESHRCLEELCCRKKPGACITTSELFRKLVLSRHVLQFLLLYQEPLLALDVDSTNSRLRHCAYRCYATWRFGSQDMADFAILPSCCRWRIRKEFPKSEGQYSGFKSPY
Assay: P2X7 calcium mobilization assay, high throughput, antagonist activity (Example 4A)
Type: cell-based
Settings: read-out: IC50
Procedure: One day prior to the experiment, cells are plated at a density of 100,000 cells/well in a 96 well black/clear TC plate (Corning® Costar®, Sigma-Aldrich Co., St. Louis, Mo.). […] After one hour dye incubation, wells are rinsed once with 50 μL assay solution, and are then incubated for an hour at room temperature with 100 μL assay solution containing the test compound. […] After the one hour incubation, plates are transferred to a FLIPR^TETRA instrument (Molecular Devices, Sunnyvale, Calif.) for calcium mobilization analysis.
First, the average maximum relative fluorescent unit (RFU) response from the negative control wells (no agonist) is subtracted from the maximum response detected for each of the other experimental wells. Second, average maximum RFU response is calculated for the positive control wells (agonist wells).

[1] = 50% decrease in the fluorescence response of cells exposed to 80 μM of 2′(3′)-O-(4-benzoyl-benzoyl)adenosine 5′-triphosphate, determined as in Example 4A
[2] = 50% decrease in the fluorescence response of cells exposed to 80 μM 2′(3′)-O-(4-benzoyl-benzoyl)adenosine 5′-triphosphate, Example 4A
[3] = 50% decrease in the fluorescence response of cells exposed to 80 μM of 2′(3′)-O-(4-benzoyl-benzoyl)adenosine 5′-triphosphate, Example 4A
[4] = SH-SY5Y cells, 50% decrease in fluorescence response to 80 μM BzATP
[5] = P2X7 calcium mobilization, Example 4A, 50% decrease in the fluorescence response of cells exposed to 80 μM of (2′(3′)-O-(4-benzoyl-benzoyl)adenosine 5′-triphosephate)
[6] = fluorescence response of cells exposed to 80 μM 2′(3′)-O-(4-benzoyl-benzoyl)adenosine 5′-triphosphate, Example 4A

IC50 [1]: < 2000 nM
SMILES: CCOC(=O)C(Cc1cccc(Cl)c1)c1cn2c(C(=O)NCC34CC5CC(CC(C5)C3)C4)cccc2n1 (stereo not drawn) [Compound 841, ethyl 2-{5-[(adamantan-1-ylmethyl)carbamoyl]imidazo[1,2-a]pyridin-2-yl}-3-(3-chlorophenyl) propanoate]

IC50 [2]: < 2000 nM
SMILES: CC1(C)[C@H]2CC[C@@H](CNC(=O)c3cccc4nc(C(=O)NC5CCC5)cn34)[C@@H]1C2 [Compound 495, 2-N-cyclobutyl-5-N-{[(1S,2R,5S)-6.6-dimethylbicyclo[3.1.1]hept-2-yl]methyl} imidazo[1,2-a]pyridine-2,5-dicarboxamide]

IC50 [2]: < 2000 nM
SMILES: N#CCc1cn2c(C(=O)NCC34CC5CC(CC(C5)C3)C4)cccc2n1 [Compound 598, N-(adamantan-1-ylmethyl)-2-(cyanomethyl)imidazo [1,2-a]pyridine-5-carboxamide]

SMILES: CN(C)[C@@H]1CCN(C(=O)Cc2cn3c(C(=O)NCC45CC6CC(CC(C6)C4)C5)cccc3n2)C1 [Compound 691, N-(adamantan-1-ylmethyl)-2-{2-[(3R)-3-(dimethylamino)pyrrolidin-1-yl]-2-oxoethyl}imidazo[1,2-a]pyridine-5-carboxamide]
IC50 [3]: < 2000 nM

IC50 [4]: < 2000 nM
SMILES: C[C@@H](O)CNC(=O)c1cn2c(C(=O)NCC34CC5CC(CC(C5)C3)C4)cccc2n1 [Compound 81, 5-N-(adamantan-1-ylmethyl)--[(2R)-2-hydroxy-propyl]imidazo[1,2-a]pyridine-2,5-dicarboxamide]

IC50 [3]: < 2000 nM
SMILES: N[C@@H]1CCN(Cc2cn3c(C(=O)NCC(CC4CCC4)c4ccccc4)cccc3n2)C1 (stereo partly drawn) [Compound 783, 2-[(3-aminopyrrolidin-1-yl)methyl]-N-(3-cyclobutyl-2-phenylpropyl) imidazo [1,2-a]pyridine-5-carboxamide]

IC50 [2]: < 2000 nM
SMILES: COCCN(C(=O)c1cn2c(C(=O)NC[C@@H]3CC[C@H]4C[C@@H]3C4(C)C)cccc2n1)C(C)C [Compound 483, 5-N-{[(1S,2R,5S)-6,6-dimethylbicyclo[3.1.1]hept-2-yl]methyl}-2-N-isopropyl-2-N-(2-methoxyethyl)imidazo [1,2-a]pyridine-2,5-dicarboxamide]

IC50 [2]: < 2000 nM
SMILES: CN(C(=O)Cc1cn2c(C(=O)NC[C@@H]3CC[C@@H]4C[C@H]3C4(C)C)cccc2n1)C1CCCNC1 (stereo partly drawn) [Compound 565, N-{[(1R,2R,5R)-6,6-dimethylbicyclo[3.1.1]hept-2-yl]methyl}-2-{2-[methyl(piperidin-3-yl)amino]-2-oxoethyl}imidazo[1,2-a]pyridine-5-carboxamide]

IC50 [5]: < 2000 nM
SMILES: CC(C)CC(CNC(=O)c1cccc2nc(CCN3CCCC3)cn12)c1ccc(Cl)cc1 (stereo not drawn) [Compound 1041, N-[2-(4-chlorophenyl)-4-methylpentyl]-2-(2-pyrrolidin-1-ylethyl) imidazo[1,2-a]pyridine-5-carboxamide]

IC50 [6]: < 2000 nM
SMILES: CCN(C)C(=O)c1cn2c(NC(=O)CC34CC5CC(CC(C5)C3)C4)cccc2n1 [Compound 369, 5-[(adamantan-1-ylacetyl)amino]-N-ethyl-N-methylimidazo[1,2-a]pyridine-2-carboxamide]

IC50 [6]: < 2000 nM
SMILES: CC(C)CC(CNC(=O)c1cccc2nc(CC(=O)N3CCCC(C)(C)C3)cn12)c1ccccc1 (stereo not drawn) [Compound 244, 2-[2-(3,3-dimethylpiperidin-1-yl)-2-oxoethyl]-N-(4-methyl-2-phenylpentyl)imidazo [1,2-a]pyridine-5-carboxamide]

SMILES: CC(C)CC(CNC(=O)c1cccc2nc(CC(=O)N3CCCC(N(C)C)C3)cn12)c1ccccc1 (stereo not drawn) [Compound 789, 2-{2-[3-(dimethylamino)piperidin-1-yl]-2-oxoethyl}-N-(4-methyl-2-phenylpentyl) imidazo[1,2-a] pyridine-5-carboxamide]
IC50 [3]: < 2000 nM

IC50 [3]: < 2000 nM
SMILES: O=C(NCC12CC3CC(CC(C3)C1)C2)c1cccc2nc(Cn3nnnc3-c3cccnc3)cn12 [Compound 814, N-(adamantan-1-ylmethyl)-2-[(5-pyridin-3-yl-1H-tetrazol-1-yl)methyl]imidazo [1,2-a]pyridine-5-carboxamide]

IC50 [5]: < 2000 nM
SMILES: O=C(NCC1(c2ccc(F)cc2)CCCCC1)c1cccc2nc(CN3CCCC3)cn12 [Compound 1045, N-{[1-(4-fluorophenyl)cyclohexyl]methyl}-2-(pyrrolidin-1-ylmethyl) imidazo[1,2-a]pyridine-5-carboxamide]

IC50 [4]: < 2000 nM
SMILES: CN(C)C(=O)CNC(=O)Cc1cn2c(C(=O)NCC34CC5CC(CC(C5)C3)C4)cccc2n1 [Compound 20, N-(adamantan-1-ylmethyl)-2-(2-{[2-(dimethylamino)-2-oxoethyl]amino}-2-oxoethyl)imidazo[1,2-a]pyridine-5-carboxamide]

IC50 [4]: < 2000 nM
SMILES: C[C@@H]1CN(C(=O)Cc2cn3c(C(=O)NCC45CC6CC(CC(C6)C4)C5)cccc3n2)CCN1 [Compound 114, N-(adamantan-1-ylmethyl)-2-{2-[(3R)-3-methylpiperazin-1-yl]-2-oxoethyl}imidazo[1,2-a]pyridine-5-carboxamide]

IC50 [1]: < 2000 nM
SMILES: O=C(Cc1cn2c(C(=O)NC3CCCCC3)cccc2n1)NCC12CC3CC(CC(C3)C1)C2 [Compound 973, 2-{2-[(adamantan-1-ylmethyl)amino]-2-oxoethyl}-N-cyclohexylimidazo[1,2-a]pyridine-5-carboxamide]

IC50 [6]: < 2000 nM
SMILES: COCCN(C(=O)c1cn2c(NC(=O)CC34CC5CC(CC(C5)C3)C4)cccc2n1)C(C)C [Compound 379, 5-[(adamantan-1-ylacetyl)amino]-N-isopropyl-N-(2-methoxyethyl)imidazo [1,2-a]pyridine-2-carboxamide]

IC50 [1]: < 2000 nM
SMILES: CCCC(CNC(=O)c1cccc2nc(CC(Cc3ccccc3)C(=O)O)cn12)c1ccc(Cl)cc1 (stereo not drawn) [Compound 1006, 2-benzyl-3-(5-{[2-(4-chlorophenyl)pentyl]carbamoyl}imidazo[1,2-a]pyridin-2-yl) propanoic acid]

IC50 [6]: < 2000 nM
SMILES: O=C(CC12CC3CC(CC(C3)C1)C2)Nc1cccc2nc(C(=O)N(CCO)C3CCCCC3)cn12 [Compound 407, 5-[(adamantan-1-ylacetyl)amino]-N-cyclohexyl-N-(2-hydroxyethyl)imidazo [1,2-a]pyridine-2-carboxamide]

IC50 [4]: < 2000 nM
SMILES: CN(CCO)C(=O)Cc1cn2c(C(=O)NCC34CC5CC(CC(C5)C3)C4)cccc2n1 [Compound 51, N-(adamantan-1-ylmethyl)-2-{2-[(2-hydroxy-ethyl)(methyl)amino]-2-oxoethyl}imidazo[1,2-a]pyridine-5-carboxamide]

IC50 [2]: < 2000 nM
SMILES: CC1(C)[C@H]2CC[C@@H](CNC(=O)c3cccc4nc(C(=O)N5CCCCC5)cn34)[C@@H]1C2 [Compound 465, N-{[(1S,2R,5S)-6,6-dimethylbicyclo[3.1.1]hept-2-yl]methyl}-2-(piperidin-1-ylcarbonyl)imidazo[1,2-a]pyridine-5-carboxamide]

IC50 [1]: < 2000 nM
SMILES: O=C(NCC12CC3CC(CC(C3)C1)C2)c1cccc2nc(CNc3ccn(CCCO)n3)cn12 [Compound 1000, N-(adamantan-1-ylmethyl)-2-({[1-(3-hydroxypropyl)-1H-pyrazol-3-yl]amino}methyl) imidazo [1,2-a]pyridine-5-carboxamide]

IC50 [4]: < 2000 nM
SMILES: O=C(Cc1cn2c(C(=O)NCC34CC5CC(CC(C5)C3)C4)cccc2n1)NC1CCCCC1 [Compound 149, N-(adamantan-1-ylmethyl)-2-[2-(cyclohexylamino)-2-oxoethyl]imidazo[1,2-a]pyridine-5-carboxamide]

IC50 [3]: < 2000 nM
SMILES: Cn1cc2c(n1)CCN(C(=O)c1cn3c(C(=O)NCC45CC6CC(CC(C6)C4)C5)cccc3n1)C2 [Compound 718, N-(adamantan-1-ylmethyl)-2-[(2-methyl-2,4,6,7-tetrahydro-5H-pyrazolo[4,3-c]pyridin-5-yl)carbonyl]imidazo[1,2-a]pyridine-5-carboxamide]

IC50 [1]: < 2000 nM
SMILES: CCOC(=O)C(CCC(C)C)c1cn2c(C(=O)NCC34CC5CC(CC(C5)C3)C4)cccc2n1 (stereo not drawn) [Compound 907, ethyl 2-{5-[(adamantan-1-ylmethyl)carbamoyl]imidazo[1,2-a]pyridin-2-yl}-5-methylhexanoate]

IC50 [1]: < 2000 nM
SMILES: CC(C)CC(CNC(=O)c1cccc2nc(CC(=O)O)cn12)c1ccc(C(F)(F)F)cc1 (stereo not drawn) [Compound 965, [5-({4-methyl-2-[4-(trifluoromethyl)phenyl]pentyl}carbamoyl)imidazo[1,2-a]pyridin-2-yl] acetic acid]
